Calls of active or inactive are those of the source. The rule behind the calls is not given here.
Tests used:
[1] = biological target: Mast/stem cell growth factor receptor Kit (Homo sapiens) (UniProt P10721); settings: dose 10.0 nM
Description: Inhibition of human c-KIT at 10 nM using poly[Glu:Tyr] (4:1) as substrate in presence of [gamma-33P]-ATP by radiometric assay relative to control

[2] = biological target: Mast/stem cell growth factor receptor Kit (Homo sapiens) (UniProt P10721); settings: dose 100.0 nM
Description: Inhibition of human c-KIT at 100 nM using poly[Glu:Tyr] (4:1) as substrate in presence of [gamma-33P]-ATP by radiometric assay relative to control

[3] = biological target: Receptor-type tyrosine-protein kinase FLT3 (Homo sapiens) (UniProt P36888); settings: dose 10.0 nM
[4] = biological target: Receptor-type tyrosine-protein kinase FLT3 (Homo sapiens) (UniProt P36888); settings: dose 100.0 nM
[5] = biological target: Macrophage colony-stimulating factor 1 receptor (Homo sapiens) (UniProt P07333); settings: dose 10.0 nM
Sequence of Macrophage colony-stimulating factor 1 receptor (Homo sapiens) (P07333 whole entry): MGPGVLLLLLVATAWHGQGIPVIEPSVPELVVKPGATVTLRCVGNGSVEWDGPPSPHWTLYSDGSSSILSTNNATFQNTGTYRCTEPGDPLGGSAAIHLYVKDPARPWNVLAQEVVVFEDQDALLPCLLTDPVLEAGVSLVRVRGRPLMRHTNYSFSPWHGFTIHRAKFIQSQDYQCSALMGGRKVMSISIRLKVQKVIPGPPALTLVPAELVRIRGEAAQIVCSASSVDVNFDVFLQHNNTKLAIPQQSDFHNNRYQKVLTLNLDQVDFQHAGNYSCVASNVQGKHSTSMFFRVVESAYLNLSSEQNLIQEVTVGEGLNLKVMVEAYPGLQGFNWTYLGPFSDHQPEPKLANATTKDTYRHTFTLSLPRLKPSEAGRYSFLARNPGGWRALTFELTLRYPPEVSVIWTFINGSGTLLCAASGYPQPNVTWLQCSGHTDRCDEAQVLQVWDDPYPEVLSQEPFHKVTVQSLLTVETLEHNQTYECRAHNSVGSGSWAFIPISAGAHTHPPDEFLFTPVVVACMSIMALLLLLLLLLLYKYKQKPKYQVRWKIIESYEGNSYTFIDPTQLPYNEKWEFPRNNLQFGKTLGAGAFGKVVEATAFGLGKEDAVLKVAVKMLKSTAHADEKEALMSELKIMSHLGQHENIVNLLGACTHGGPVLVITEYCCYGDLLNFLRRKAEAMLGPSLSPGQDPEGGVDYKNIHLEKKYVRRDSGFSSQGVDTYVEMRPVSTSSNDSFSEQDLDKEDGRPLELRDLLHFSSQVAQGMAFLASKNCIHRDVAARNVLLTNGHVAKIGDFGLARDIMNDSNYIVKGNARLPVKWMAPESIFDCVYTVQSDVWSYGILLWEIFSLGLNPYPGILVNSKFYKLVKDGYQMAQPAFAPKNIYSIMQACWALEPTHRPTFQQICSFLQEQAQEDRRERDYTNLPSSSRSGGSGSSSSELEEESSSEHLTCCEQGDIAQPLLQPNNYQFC
Description: Inhibition of human CSF1R at 10 nM using poly[Glu:Tyr] (4:1) as substrate in presence of [gamma-33P]-ATP by radiometric assay relative to control

[6] = biological target: Macrophage colony-stimulating factor 1 receptor (Homo sapiens) (UniProt P07333); settings: dose 100.0 nM
Description: Inhibition of human CSF1R at 100 nM using poly[Glu:Tyr] (4:1) as substrate in presence of [gamma-33P]-ATP by radiometric assay relative to control

[7] = biological target: T1, Macrophage colony-stimulating factor 1 receptor (Mus musculus) (UniProt P09581); experiment: Inhibition of CSF1R phosphorylation in mouse RAW 264.7 cells at 10 to 100 nM preincubated for 5 hrs followed by CSF stimulation for 10 mins by Western blot analysis; assay type: cell-based; settings: RAW264.7, dose 10-100 nM, time 310.0 min
T1 sequence (whole entry): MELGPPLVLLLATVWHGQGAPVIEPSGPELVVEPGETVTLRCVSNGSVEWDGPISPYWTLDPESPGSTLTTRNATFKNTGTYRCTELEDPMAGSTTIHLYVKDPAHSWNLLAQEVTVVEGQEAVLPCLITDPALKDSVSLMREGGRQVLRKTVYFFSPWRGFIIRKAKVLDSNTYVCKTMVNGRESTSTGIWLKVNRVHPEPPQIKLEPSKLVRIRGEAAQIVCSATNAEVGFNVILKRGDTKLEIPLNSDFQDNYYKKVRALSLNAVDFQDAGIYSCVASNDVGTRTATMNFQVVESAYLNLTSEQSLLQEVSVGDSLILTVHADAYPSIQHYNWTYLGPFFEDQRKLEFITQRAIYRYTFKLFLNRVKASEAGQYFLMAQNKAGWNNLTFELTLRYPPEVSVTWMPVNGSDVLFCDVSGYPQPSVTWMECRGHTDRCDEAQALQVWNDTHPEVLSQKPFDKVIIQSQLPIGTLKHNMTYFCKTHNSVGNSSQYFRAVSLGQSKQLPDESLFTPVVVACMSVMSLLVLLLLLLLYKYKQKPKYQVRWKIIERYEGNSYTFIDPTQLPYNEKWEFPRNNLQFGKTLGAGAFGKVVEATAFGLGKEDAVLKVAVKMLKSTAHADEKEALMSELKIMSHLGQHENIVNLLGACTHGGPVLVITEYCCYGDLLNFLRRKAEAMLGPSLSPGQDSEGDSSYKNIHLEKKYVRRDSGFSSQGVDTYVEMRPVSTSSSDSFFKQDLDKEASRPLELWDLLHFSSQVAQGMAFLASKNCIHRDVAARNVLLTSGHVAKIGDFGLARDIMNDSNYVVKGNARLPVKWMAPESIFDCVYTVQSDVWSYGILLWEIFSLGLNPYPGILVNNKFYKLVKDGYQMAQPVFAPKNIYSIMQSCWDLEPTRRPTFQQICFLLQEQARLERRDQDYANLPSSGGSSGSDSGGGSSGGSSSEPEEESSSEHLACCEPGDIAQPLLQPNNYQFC

Sequence of Mast/stem cell growth factor receptor Kit (Homo sapiens) (P10721 whole entry): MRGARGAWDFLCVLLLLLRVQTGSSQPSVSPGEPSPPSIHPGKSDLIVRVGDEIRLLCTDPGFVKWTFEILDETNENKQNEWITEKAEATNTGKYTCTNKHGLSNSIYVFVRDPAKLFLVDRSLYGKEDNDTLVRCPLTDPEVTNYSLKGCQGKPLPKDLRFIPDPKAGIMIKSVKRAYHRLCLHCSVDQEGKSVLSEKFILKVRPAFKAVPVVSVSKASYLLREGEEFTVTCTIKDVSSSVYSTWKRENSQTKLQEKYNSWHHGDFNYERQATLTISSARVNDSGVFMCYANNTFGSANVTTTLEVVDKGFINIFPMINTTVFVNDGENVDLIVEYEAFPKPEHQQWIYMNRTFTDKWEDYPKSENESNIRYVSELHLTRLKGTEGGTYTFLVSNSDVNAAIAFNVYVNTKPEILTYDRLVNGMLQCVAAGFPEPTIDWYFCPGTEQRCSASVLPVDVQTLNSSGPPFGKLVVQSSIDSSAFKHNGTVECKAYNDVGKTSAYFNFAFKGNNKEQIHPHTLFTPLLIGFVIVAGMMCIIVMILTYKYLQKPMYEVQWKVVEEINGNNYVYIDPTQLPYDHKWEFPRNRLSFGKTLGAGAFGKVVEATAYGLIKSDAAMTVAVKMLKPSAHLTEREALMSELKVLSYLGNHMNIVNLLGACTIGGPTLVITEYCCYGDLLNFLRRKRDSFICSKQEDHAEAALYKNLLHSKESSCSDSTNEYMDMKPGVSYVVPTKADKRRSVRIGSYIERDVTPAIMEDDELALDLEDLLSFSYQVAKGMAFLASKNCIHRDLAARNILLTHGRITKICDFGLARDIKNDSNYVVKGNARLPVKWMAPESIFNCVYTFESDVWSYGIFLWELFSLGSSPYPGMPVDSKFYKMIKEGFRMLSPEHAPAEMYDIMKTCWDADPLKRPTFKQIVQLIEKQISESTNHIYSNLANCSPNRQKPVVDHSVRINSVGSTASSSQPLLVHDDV
Sequence of Receptor-type tyrosine-protein kinase FLT3 (Homo sapiens) (P36888 whole entry): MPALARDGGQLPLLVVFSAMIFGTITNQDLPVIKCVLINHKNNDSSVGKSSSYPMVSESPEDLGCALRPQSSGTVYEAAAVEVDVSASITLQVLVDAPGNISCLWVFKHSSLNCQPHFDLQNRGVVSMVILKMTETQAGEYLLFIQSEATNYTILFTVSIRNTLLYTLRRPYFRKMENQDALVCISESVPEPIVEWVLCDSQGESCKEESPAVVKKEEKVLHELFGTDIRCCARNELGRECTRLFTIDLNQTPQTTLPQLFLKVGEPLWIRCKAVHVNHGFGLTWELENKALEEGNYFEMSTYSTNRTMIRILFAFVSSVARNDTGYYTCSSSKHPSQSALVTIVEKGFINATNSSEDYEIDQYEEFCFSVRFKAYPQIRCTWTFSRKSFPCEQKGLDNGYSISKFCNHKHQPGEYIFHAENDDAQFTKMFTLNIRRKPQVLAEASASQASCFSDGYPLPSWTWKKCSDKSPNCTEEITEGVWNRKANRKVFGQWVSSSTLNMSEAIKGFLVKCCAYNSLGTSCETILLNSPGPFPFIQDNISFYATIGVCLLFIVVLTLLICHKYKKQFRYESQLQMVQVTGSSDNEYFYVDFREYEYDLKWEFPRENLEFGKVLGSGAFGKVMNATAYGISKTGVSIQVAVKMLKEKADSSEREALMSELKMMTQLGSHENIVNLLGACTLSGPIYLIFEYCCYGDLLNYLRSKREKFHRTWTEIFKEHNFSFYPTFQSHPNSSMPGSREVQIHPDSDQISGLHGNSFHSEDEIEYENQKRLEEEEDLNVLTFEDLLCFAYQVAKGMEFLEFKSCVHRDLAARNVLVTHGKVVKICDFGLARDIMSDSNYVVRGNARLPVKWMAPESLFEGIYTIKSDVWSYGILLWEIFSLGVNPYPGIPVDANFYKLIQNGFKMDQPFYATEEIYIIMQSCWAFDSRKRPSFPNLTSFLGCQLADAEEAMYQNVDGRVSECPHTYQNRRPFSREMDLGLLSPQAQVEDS

SMILES | inhibition [1] | inhibition [2] | inhibition [3] | inhibition [4] | inhibition [5] | inhibition [6] | inhibition [7]
Cc1cn(-c2cc(NC(=O)c3ccc(C)c(Nc4nccc(-c5cccnc5)n4)c3)cc(C(F)(F)F)c2)cn1 | 2% | 33% | 0% | 4% | 14% |  | 
Cc1ccc(NCc2ccc(C(F)(F)F)nc2)cc1NC(=O)c1cnc2cccnn12 | 6% | 25% |  |  |  |  | 
COc1ccc(COc2ccc(Cc3cnc(N)nc3N)cc2OC)cc1 | 4% | 8% | 4% | 11% |  |  | 
FC(F)(F)c1ccc(CNc2ccc(Cc3c[nH]c4ncc(Cl)cc34)cn2)cn1 | 13% | 51% | 1% | 11% |  |  | 
CCN1CCN(Cc2ccc(C(=O)Nc3ccc(C)c(NC(=O)c4cnc5ccccn45)c3)cc2C(F)(F)F)CC1 | 30% | 70% |  |  |  |  | 
CNC(=O)c1cc(Oc2ccc3nc(N[C@H]4CCCC[C@H]4O)sc3c2)ccn1 | 2% | 2% | 19% | 20% | 76% | 94% | 
Cc1ccc(NCc2ccc(C(F)(F)F)nc2)cc1NC(=O)c1cnn2ccccc12 | 17% | 45% |  |  |  |  | 
CCN1CCN(Cc2ccc(C(=O)Nc3ccc(C)c(NCc4cnc5ccc(OC)nn45)c3)cc2C(F)(F)F)CC1 | 25% | 63% |  |  |  |  | 
CCN1CCN(Cc2ccc(C(=O)Nc3ccc(C)c(NC(=O)c4cc[nH]n4)c3)cc2C(F)(F)F)CC1 | 0% | 17% |  |  |  |  | 
Cc1ccc(NC(=O)c2ccc(C(F)(F)F)nc2)cc1NC(=O)c1cnc2cccnn12 | 4% | 32% |  |  |  |  | 
Cc1cn(-c2cc(NC(=O)c3ccc(C)c(NC(=O)c4cnc5ccccn45)c3)cc(C(F)(F)F)c2)cn1 | 0% | 33% |  |  |  |  | 
Cc1ccc(NCc2ccc(C(F)(F)F)nc2)cc1NC(=O)c1cnc2ccccn12 | 14% | 56% |  |  |  |  | 
CCN1CCN(Cc2ccc(C(=O)Nc3ccc(C)c(NC(=O)c4cnc5cccnn45)c3)cc2C(F)(F)F)CC1 | 27% | 64% |  |  |  |  | 
CCN1CCN(Cc2ccc(C(=O)Nc3ccc(C)c(NC(=O)c4ncc[nH]4)c3)cc2C(F)(F)F)CC1 | 31% | 81% |  |  |  |  | 
CCN1CCN(Cc2ccc(C(=O)Nc3ccc(C)c(NC(=O)c4n[nH]c5ccccc45)c3)cc2C(F)(F)F)CC1 | 43% | 89% |  |  |  |  | 
CCN1CCN(Cc2ccc(C(=O)Nc3ccc(C)c(NC(=O)c4ccn(C)n4)c3)cc2C(F)(F)F)CC1 | 14% | 54% |  |  |  |  | 
Cc1ccc(NC(=O)c2ccc(C(F)(F)F)nc2)cc1NC(=O)c1cnn2ccccc12 | 30% | 53% |  |  |  |  | Active
CCN1CCN(Cc2ccc(C(=O)Nc3ccc(C)c(NC(=O)c4c[nH]cn4)c3)cc2C(F)(F)F)CC1 | 41% | 89% |  |  |  |  | 
CCN1CCN(Cc2ccc(NC(=O)c3ccc(C)c(NC(=O)c4cnc5cccnn45)c3)cc2C(F)(F)F)CC1 | 96% | 98% |  |  |  |  | 
CCN1CCN(Cc2ccc(C(=O)Nc3ccc(C)c(NC(=O)c4cnc5ncccn45)c3)cc2C(F)(F)F)CC1 | 10% | 49% |  |  |  |  | 
CCN1CCN(Cc2ccc(C(=O)Nc3ccc(C)c(NC(=O)c4cnnc5ccccc45)c3)cc2C(F)(F)F)CC1 | 10% | 40% |  |  |  |  | 
CCN1CCN(Cc2ccc(C(=O)Nc3ccc(C)c(NC(=O)c4n[nH]c5ncccc45)c3)cc2C(F)(F)F)CC1 | 96% | 98% |  |  |  |  | 
CCN1CCN(Cc2ccc(C(=O)Nc3ccc(C)c(NC(=O)c4cnn5ccccc45)c3)cc2C(F)(F)F)CC1 | 27% | 73% |  |  |  |  | 
CCN1CCN(Cc2ccc(C(=O)Nc3ccc(C)c(NCc4cnc5cccnn45)c3)cc2C(F)(F)F)CC1 | 22% | 49% |  |  |  |  | 
Cc1cn(-c2cc(NC(=O)c3ccc(C)c(NC(=O)c4cnc5cccnn45)c3)cc(C(F)(F)F)c2)cn1 | 7% | 50% |  |  |  |  | 

Source: ChEMBL document CHEMBL4813977, “Discovery of potent colony-stimulating factor 1 receptor inhibitors by replacement of hinge-binder moieties” (Eur J Med Chem, 2021)
